In one test the target is T1, Prolyl endopeptidase (Homo sapiens, UniProt P48147).
T1 sequence (P48147 whole entry): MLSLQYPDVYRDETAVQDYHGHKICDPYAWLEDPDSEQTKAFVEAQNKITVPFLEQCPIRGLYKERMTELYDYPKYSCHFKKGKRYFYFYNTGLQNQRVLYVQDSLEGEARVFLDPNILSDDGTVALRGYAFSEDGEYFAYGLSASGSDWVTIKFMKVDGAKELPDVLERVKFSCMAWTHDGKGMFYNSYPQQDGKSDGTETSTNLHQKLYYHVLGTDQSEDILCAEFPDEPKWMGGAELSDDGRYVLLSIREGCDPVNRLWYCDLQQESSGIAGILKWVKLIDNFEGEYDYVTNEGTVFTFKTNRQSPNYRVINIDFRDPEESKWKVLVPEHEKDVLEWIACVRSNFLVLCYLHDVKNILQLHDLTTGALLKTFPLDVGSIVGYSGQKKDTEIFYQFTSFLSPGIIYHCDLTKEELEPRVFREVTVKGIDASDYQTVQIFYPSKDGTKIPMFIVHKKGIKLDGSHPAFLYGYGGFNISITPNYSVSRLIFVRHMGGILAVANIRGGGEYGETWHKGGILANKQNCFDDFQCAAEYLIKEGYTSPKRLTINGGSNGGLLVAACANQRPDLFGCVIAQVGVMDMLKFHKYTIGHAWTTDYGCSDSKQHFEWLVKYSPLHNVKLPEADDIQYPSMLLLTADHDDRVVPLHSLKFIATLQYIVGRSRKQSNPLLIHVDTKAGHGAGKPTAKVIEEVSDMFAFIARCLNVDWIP
Description: Inhibition of prolyl oligopeptidase (unknown origin).

A further test is described as follows: cells. To be noted: Homo sapiens, HL-60, 48 h.

For 9 compounds, IC50 results are on record in ChEMBL document CHEMBL3351856, “Structural revision of kynapcin-12 by total synthesis, and inhibitory activities against prolyl oligopeptidase and cancer cells” (Bioorg Med Chem Lett, 2014).

Bridge positions count the residues as written; N and C are the ends. Peptide text beside a SMILES is read from it.

By IC50 is commonly meant the point on the concentration scale where inhibition reaches its midpoint.

Description for cells: Cytotoxicity against human HL60 cells after 48 hrs by MTT assay

Take `COCc1c(OC(C)=O)c(-c2ccc(O[Si](C)(C)C(C)(C)C)cc2)c(COC)c(OC(C)=O)c1-c1ccc(O[Si](C)(C)C(C)(C)C)cc1`: the 50% inhibitory concentration (IC50) at Prolyl endopeptidase is greater than 50 µM; in “cells”, 19.1 µM.

For `CC(C)(C)[Si](C)(C)Oc1ccc(C2=C3OCOC3=C(c3ccc(O[Si](C)(C)C(C)(C)C)cc3)C(=O)C2=O)cc1`, the IC50 on Prolyl endopeptidase is 15.1 µM; in “cells” it was 2.8 µM.

For `CC(=O)Oc1c(OC(C)=O)c(-c2ccc(O)cc2)c(O)c(O)c1-c1ccc(O)cc1`, the IC50 in the test “cells” is greater than 20 µM.

In the case of `CC[C@H](C)[C@H](NC(=O)[C@H](Cc1ccccc1)NC(=O)[C@@H](NC(=O)[C@H](Cc1cnc[nH]1)NC(=O)CNC(=O)CNC(=O)[C@H](Cc1ccccc1)NC(=O)[C@H](CC(C)C)NC(=O)[C@@H]1CC(=O)NCC(=O)N[C@@H](Cc2ccc(O)cc2)C(=O)N2CCC[C@H]2C(=O)N[C@@H](Cc2c[nH]c3ccccc23)C(=O)N[C@@H](Cc2c[nH]c3ccccc23)C(=O)N[C@@H](CC(=O)O)C(=O)N[C@@H](Cc2ccc(O)cc2)C(=O)N[C@@H](CCCNC(=N)N)C(=O)N1)[C@@H](C)O)C(=O)N[C@@H](CO)C(=O)N1CCC[C@H]1C(=O)O` (GYPWWDYRDLFGGHTFISP-OH; lactam N-9), the half-maximal inhibitory concentration (IC50) against Prolyl endopeptidase stood at 1.4 µM.

As for `COCC1=C(c2ccc(O[Si](C)(C)C(C)(C)C)cc2)C(=O)C(COC)=C(c2ccc(O[Si](C)(C)C(C)(C)C)cc2)C1=O`, 6.5 µM corresponded to half-maximal inhibition in the test “cells” (IC50).

On to `CC(=O)Oc1c(OC(C)=O)c(-c2ccc(O[Si](C)(C)C(C)(C)C)cc2)c2c(c1-c1ccc(O[Si](C)(C)C(C)(C)C)cc1)OC(OC(C)=O)O2`, for which the IC50 turned out to be 3.5 µM against Prolyl endopeptidase and 4.2 µM in the test “cells”.

`CC(=O)OC1=C(c2ccc(O)cc2)C(=O)C(OC(C)=O)=C(c2ccc(O)cc2)C1=O`: the 50% inhibitory concentration (IC50) in the test “cells” was greater than 20 µM.

Turning to `CC(=O)Oc1c(OC(C)=O)c(-c2ccc(O[Si](C)(C)C(C)(C)C)cc2)c2c(c1-c1ccc(O[Si](C)(C)C(C)(C)C)cc1)OCO2`, in “cells”, 2.9 µM corresponded to half-maximal inhibition (IC50).

For `COCc1c(COC)c(-c2ccc(O[Si](C)(C)C(C)(C)C)cc2)c(COC)c(COC)c1-c1ccc(O[Si](C)(C)C(C)(C)C)cc1`, the values for the concentration for half-maximal inhibition (IC50) against Prolyl endopeptidase and in the test “cells” were greater than 50 µM and 14.4 µM, respectively.
